US12102432B2, “Uses of transdermal glomerular filtration rate measurement in continuous renal replacement therapy” (MediBeacon Inc., priority 2018, dated 2024)

How the values were obtained:
[1] = In vivo clearance by CVVH in porcine model with bilateral nephrectomy; set-up: species or system Swine
Method: Swine (3 male and 3 female, for both CVVH and CVVHD modalities) weighing 35-40 kg were used. In this model, a total functional nephrectomy was achieved by ligation of all renal arteries. Animals were inspected by professional veterinary staff within 48 hours of arrival. Any underlying infections or parasitism was treated based on veterinary recommendations.
Prior to study, the animals were fasted overnight (with water ad libitum) to reduce the risk of aspiration. On the morning of the study, animals were sedated with an intramuscular injection of Telazol/Xylazine (or a Ketamine/xylazine combination) at recommended doses and transported to the operating theatre. Pigs were then anesthetized via inhalation of 5% isoflurane in oxygen via mask. A catheter was placed in the marginal ear vein to provide immediate venous access for further medications and IV fluids.
Pigs were orotracheally intubated and the isoflurane concentration reduced to 1%-3% to maintain anesthesia for the duration of the experiment. Pigs were mechanically ventilated using a tidal volume of 10 mL/kg and respiratory rate adjusted to keep a P(CO2) of 40±2 mmHg. A three lead electrocardiogram was used to monitor heart rate and rhythm. Core body temperature was measured with a rectal thermistor probe and maintained at 37-39° C. with the use of a circulating water blanket.
Hair was removed from the ventral neck, abdominal and/or the femoral regions, and these sites were prepared for aseptic surgery. Lidocaine was injected at incision site(s). When a surgical plane of anesthesia was reached, the right carotid artery was approached via cut down incision and cannulated for continuous blood pressure monitoring. This facilitated withdrawal of blood samples for the study and for the determination of respiratory gases, acid-base status and glucose concentration. A catheter was placed in the right jugular/femoral vein to infuse medications or replacement fluids and an 11 Fr hemodialysis catheter was placed into the left jugular vein for both CVVH and CVVHD procedures.
The abdomen was then opened via a midline laparotomy. The renal hilum was identified, and ties were placed around the renal artery or arteries: for partial or total ligation as dictated by study requirements (full-function nephrectomy via total ligation of all renal arteries, and full-function nephrectomy of one kidney and partial ligation of the second kidney). Perivascular flow probes were placed around the proximal renal artery of the kidneys in situ, as required. […] A purse-sting suture was placed in the urinary bladder and a small cystotomy incision was performed to advance a Foley catheter for urine collection and quantification, as required.
Due to the length of time of study, the abdomen was closed in 2-3 layers with appropriate suture material to prevent desiccation of tissues. Suture patterns allowed for external extension of tubing and flow probe lines for equipment attachment as required. Following complete instrumentation, the pig was stabilized. Vital signs were monitored continuously and, once stable, either the CVVH and CVVHD experiment was initiated.
After taking a pre-MB-102 blood sample (baseline), a dose of 6 mg/kg of MB-102 was injected as a single bolus, followed by a 90 minute period of equilibration, to allow for MB-102 systemic redistribution (see FIGS. 7 and 13 for equilibration of fluorescent signal detected by the renal monitoring assembly). Thirty minutes after the MB-102 injection, Meropenum was infused for 30 minutes, which reached a peak concentration in blood ˜1 hr after the start of the infusion. After drug equilibration, CRRT was initiated (either CVVH or CVVHD) at a blood flow rate (BFR) of 100 mL/min with corresponding 20 mL/kg/hr effluent rate during a time-course of 90 minutes (with collections at 0, 30, 60, 90 minutes). […]

[2] = stated as pharmacokinetic parameter, no test described; cited from earlier work
[3] = In vitro continuous hemofiltration (CVVH) model, sieving coefficient; format: in vitro ADME, bovine; conditions: for Mean sieving coefficient: CVVH
Method: The procedure for the CVVH study was conducted using the model CVVH system illustrated in FIG. 5. The CLTM of urea and MB-102 were evaluated with different blood flow rates, ultrafiltration rate (Quf) and hemodiafilters (Table 1). In a closed-loop system, the formed effluent was returned to the blood as a post-filter replacement fluid downstream from the post-hemodiafilter blood sampling port. Pre- and post-hemodiafilter blood samples, and effluent samples were collected concurrently. Six experiments were conducted for each hemodiafilter, and new hemodiafilters and CRRT apparatus were used for each experiment. Sieving coefficient (SC) and CLTM were calculated as follows:
[formula] where Sc is the sieving coefficient; Cuf is the concentration in the effluent; Ca is the concentration of the solute in the pre-filter; and Cv is the concentration of the solute in the post-filter. CLconv=SC×QUF Equation (4) wherein CLconv is the convective clearance for the post-filter replacement; QUF is the ultrafiltration rate.
All blood samples were collected and centrifuged at 3000 rpm for 10 minutes. The plasma and effluent samples were transferred to cryovials in duplicate and stored at −80° C. until analysis. BUN concentrations were analyzed with Advia 1800 (Siemens Healthcare Diagnostic Inc., Tarrytown, N.Y., USA) having a lower limit of quantification of 5 mg/dL.
Similarly, six CVVH and CVVHD experiments with each hemodiafilter were used to detect a 25% difference in MB-102 CLTM between hemodiafilters. Assumptions used in these calculations included: a power of 90% and a standard deviation of 10% with a significance level of p<0.05. A two-tailed, unpaired t-test was used to compare differences between the two hemodiafilters, and the analysis of variance was used to compare different QUF and Qd within each hemodiafilter type.

[4] = assembly on chest (QLS26), blood flow rate 100, effluent flow rate 20 mL/min, 1st of four regions
[5] = assembly on chest (QLS26), blood flow rate 100, effluent flow rate 20 mL/min, 3rd of four regions
[6] = assembly on chest (QLS26), blood flow rate 200, effluent flow rate 35 mL/min, 2nd of four regions
[7] = assembly on chest (QLS26), blood flow rate 200, effluent flow rate 35 mL/min, 4th of four regions
[8] = assembly on sternum (QLS25), blood flow rate 100, effluent flow rate 20 mL/min, 1st of four regions
[9] = assembly on sternum (QLS25), blood flow rate 100, effluent flow rate 20 mL/min, 3rd of four regions
[10] = assembly on sternum (QLS25), blood flow rate 200, effluent flow rate 35 mL/min, 2nd of four regions
[11] = assembly on sternum (QLS25), blood flow rate 200, effluent flow rate 35 mL/min, 4th of four regions

- MB-102 Clearance Rate Constant [1, 4]: 0.1129 h⁻¹
- RDTC [1, 4]: 8.86 h
- MB-102 Clearance Rate Constant [1, 5]: 0.0879 h⁻¹
- RDTC [1, 5]: 11.38 h
- MB-102 Clearance Rate Constant [1, 6]: 0.1314 h⁻¹
- RDTC [1, 6]: 7.61 h
- MB-102 Clearance Rate Constant [1, 7]: 0.1308 h⁻¹
- RDTC [1, 7]: 7.64 h
- MB-102 Clearance Rate Constant [1, 8]: 0.1145 h⁻¹
- RDTC [1, 8]: 8.73 h
- MB-102 Clearance Rate Constant [1, 9]: 0.0763 h⁻¹
- RDTC [1, 9]: 13.11 h
- MB-102 Clearance Rate Constant [1, 10]: 0.145 h⁻¹
- RDTC [1, 10]: 6.90 h
- MB-102 Clearance Rate Constant [1, 11]: 0.1238 h⁻¹
- RDTC [1, 11]: 8.08 h
- Mean sieving coefficient ([3]; HF1400, ultrafiltration rate 16.7 mL/min): 1.14 ± 0.06
- Mean sieving coefficient ([3]; HF1400, ultrafiltration rate 33.3 mL/min): 1.17 ± 0.03
- Mean sieving coefficient ([3]; HF1400, ultrafiltration rate 50 mL/min): 1.18 ± 0.05
- Mean sieving coefficient ([3]; M150, ultrafiltration rate 16.7 mL/min): 1.17 ± 0.12
- Mean sieving coefficient ([3]; M150, ultrafiltration rate 33.3 mL/min): 1.17 ± 0.07
- Mean sieving coefficient ([3]; M150, ultrafiltration rate 50 mL/min): 1.16 ± 0.07
- Sieving coefficient (SC) ([3]; three different Quf, both hemodiafilters): approximately 1
SMILES: Nc1nc(C(=O)N[C@H](CO)C(=O)O)c(N)nc1C(=O)N[C@H](CO)C(=O)O [MB-102, (2R,2′R)-2,2′-((3,6-diaminopyrazine-2,5-dicarbonyl)bis(azanediyl))bis(3-hydroxypropanoic acid)]
- protein binding [2]: 0%
